The numbers were not newly measured in patent US10937641B2, “MALDI mass spectrometry method” (BiosparQ B.V., priority 2017, dated 2021), which cites them from elsewhere.

Each structure is given as a SMILES string. Converted amounts (≈) assume the structure as drawn.

The conditions of this data set: solubility defined at room temperature as intrinsic solubility.

As for `N#CC(=Cc1ccc(O)cc1)C(=O)O` [αCHCA, α-cyano-4-hydroxycinnamic acid], the solubility in water was 6000 µg/mL (≈ 31.7 mM).
